Assay in all cases: NCI-60 one-dose SRB screening
Holding throughout (assay type): cell-based

In one assay the test system is PC-3. To be noted: Homo sapiens, PC-3, Prostate Cancer, 10 µM one dose, 48 h, read-out: growth percentage.
For another assay, the system named is HCC-2998. To be noted: Homo sapiens, HCC-2998, Colon Cancer, 10 µM one dose, 48 h, read-out: growth percentage.
Another assay concerns MDA-MB-468. As to conditions: Homo sapiens, MDA-MB-468, Breast Cancer, 10 µM one dose, 48 h, read-out: growth percentage.
The test system of another assay is ACHN. As to conditions: Homo sapiens, Renal Cancer, 10 µM one dose, 48 h, read-out: growth percentage.
The next assay deals with CCRF-CEM. To be noted: Homo sapiens, Leukemia, 10 µM one dose, 48 h, read-out: growth percentage.
For a further assay, the system named is SN12C. As to conditions: Homo sapiens, Renal Cancer, 10 µM one dose, 48 h, read-out: growth percentage.
In the next assay the test system is HT29. As to conditions: Homo sapiens, HT-29, HT29, Colon Cancer, 10 µM one dose, 48 h, read-out: growth percentage.
The test system of the next assay is OVCAR-4. As to conditions: Homo sapiens, OVCAR-4, Ovarian Cancer, 10 µM one dose, 48 h, read-out: growth percentage.
A further assay concerns SK-OV-3. As to conditions: Homo sapiens, SK-OV-3, Ovarian Cancer, 10 µM one dose, 48 h, read-out: growth percentage.
A further assay concerns UACC-257. As to conditions: Homo sapiens, UACC-257, Melanoma, 10 µM one dose, 48 h, read-out: growth percentage.
The next assay relates to SF-295. To be noted: Homo sapiens, SF-295, CNS Cancer, 10 µM one dose, 48 h, read-out: growth percentage.
The next assay deals with RPMI-8226. As to conditions: Homo sapiens, RPMI-8226, Leukemia, 10 µM one dose, 48 h, read-out: growth percentage.
The test system of the next assay is SK-MEL-2. As to conditions: Homo sapiens, SK-MEL-2, Melanoma, 10 µM one dose, 48 h, read-out: growth percentage.
In the next assay the test system is BT-549. As to conditions: Homo sapiens, BT-549, Breast Cancer, 10 µM one dose, 48 h, read-out: growth percentage.
The next assay deals with MCF7. To be noted: Homo sapiens, MCF7, Breast Cancer, 10 µM one dose, 48 h, read-out: growth percentage.
The next assay has as its system NCI-H322M. As to conditions: Homo sapiens, Non-Small Cell Lung Cancer, 10 µM one dose, 48 h, read-out: growth percentage.
A further assay relates to SNB-19. As to conditions: Homo sapiens, SNB-19, CNS Cancer, 10 µM one dose, 48 h, read-out: growth percentage.
The test system of a further assay is SF-539. To be noted: Homo sapiens, SF-539, CNS Cancer, 10 µM one dose, 48 h, read-out: growth percentage.
For another assay, the system named is NCI/ADR-RES. As to conditions: Homo sapiens, Ovarian Cancer, 10 µM one dose, 48 h, read-out: growth percentage.
Another assay relates to SW-620. To be noted: Homo sapiens, SW-620, Colon Cancer, 10 µM one dose, 48 h, read-out: growth percentage.
For another assay, the system named is COLO 205. To be noted: Homo sapiens, COLO 205, Colon Cancer, 10 µM one dose, 48 h, read-out: growth percentage.
A further assay relates to HOP-62. As to conditions: Homo sapiens, HOP-62, Non-Small Cell Lung Cancer, 10 µM one dose, 48 h, read-out: growth percentage.
For another assay, the system named is EKVX. To be noted: Homo sapiens, Non-Small Cell Lung Cancer, 10 µM one dose, 48 h, read-out: growth percentage.

As for `O=c1[nH]c(CNc2ccc(NCc3c(-c4ccccc4)no[n+]3[O-])cc2)nc2c1cnn2-c1ccccc1` [14a, 3-(((4-(((4-oxo-1-phenyl-4,5-dihydro-1H-pyrazolo[3,4-d]pyrimidin-6-yl)methyl)amino)phenyl)amino)methyl)-4-phenyl-1,2,5-oxadiazole 2-oxide], the activity at 10 µM in the assay on PC-3 stood at 63.3%; in the assay on HCC-2998, 84.4%; in the assay on MDA-MB-468, 33.2%; in the assay with ACHN, 70.4%; in the assay on CCRF-CEM it was 57.9%; with SN12C it was 79%. Further, the activity at 10 µM in the assay on HT29 is 92%; in the assay with OVCAR-4, 94.5%; in the assay on SK-OV-3 it was 60.6%; in the assay on UACC-257, 39%; in the assay on SF-295, 71.8%; with RPMI-8226 it was 61.9%. The activity at 10 µM amounted to 77.8% in the assay on SK-MEL-2; 62.1% in the assay with BT-549; 50% in the assay with MCF7; 80.2% in the assay on NCI-H322M; 94% with SNB-19; 92.6% with SF-539. For the same molecule, the activity at 10 µM in the assay with NCI/ADR-RES was 79.4%; in the assay on SW-620, 92.8%; in the assay with COLO 205, 101%; in the assay with HOP-62, 105%; in the assay with EKVX, 51.3%.
For `Cc1nn(-c2ccccc2)c2nc(CNc3ccc(NCc4c(-c5ccccc5)no[n+]4[O-])cc3)[nH]c(=O)c12` [14b, 3-(((4-(((3-methyl-4-oxo-1-phenyl-4,5-dihydro-1H-pyrazolo[3,4-d]pyrimidin-6-yl)methyl)amino)phenyl)amino)methyl)-4-phenyl-1,2,5-oxadiazole 2-oxide], the activity at 10 µM in the assay on PC-3 amounted to 77.7%; in the assay with HCC-2998 it was 111%; with MDA-MB-468, 66.9%; with ACHN, 88.8%; in the assay with CCRF-CEM it was 78.8%; in the assay on SN12C it was 89.4%. For the same molecule, the activity at 10 µM was found to be 107% in the assay with HT29; 102% with OVCAR-4; 85.4% with SK-OV-3; 90.1% in the assay on UACC-257; 103% in the assay on SF-295; 79% in the assay on RPMI-8226. The activity at 10 µM was determined as 100% in the assay on SK-MEL-2; 95.9% in the assay with BT-549; 77% in the assay on MCF7; 89% in the assay on NCI-H322M; 101% in the assay on SNB-19; 99.4% in the assay on SF-539. The activity at 10 µM in the assay on NCI/ADR-RES came to 92.4%; in the assay on SW-620, 110%; in the assay on COLO 205 it was 116%; in the assay with HOP-62, 110%; with EKVX it was 83%.
For the molecule `Cc1nn(-c2ccc(Br)cc2)c2nc(CNc3ccc(NCc4c(-c5ccccc5)no[n+]4[O-])cc3)[nH]c(=O)c12` [14c, 3-(((4-(((1-(4-bromophenyl)-3-methyl-4-oxo-4,5-dihydro-1H-pyrazolo[3,4-d]pyrimidin-6-yl)methyl)amino)phenyl)amino)methyl)-4-phenyl-1,2,5-oxadiazole 2-oxide], the activity at 10 µM in the assay on PC-3 worked out at 96.6%; in the assay with HCC-2998, 112%; in the assay on MDA-MB-468 it was 94.4%; in the assay on ACHN it was 96.9%; with CCRF-CEM, 105%; in the assay with SN12C, 98.8%. The activity at 10 µM was found to be 110% in the assay on HT29; 127% with OVCAR-4; 107% in the assay with SK-OV-3; 101% with UACC-257; 115% in the assay on SF-295; 112% with RPMI-8226. Also, the activity at 10 µM came out at 107% in the assay with SK-MEL-2; 98.1% in the assay on BT-549; 88.1% in the assay on MCF7; 104% in the assay on NCI-H322M; 102% in the assay on SNB-19; 102% with SF-539. Besides, the activity at 10 µM in the assay with NCI/ADR-RES was found to be 101%; in the assay with SW-620, 111%; in the assay with COLO 205, 115%; with HOP-62, 116%; with EKVX, 98.9%.
Consider `Nc1ccc(NCc2c(-c3ccccc3)no[n+]2[O-])cc1` [compound 11, 3-(((4-aminophenyl)amino)methyl)-4-phenyl-1,2,5-oxadiazole 2-oxide], for which the activity at 10 µM with PC-3 came to 95.1%; in the assay on HCC-2998 it was 118%; in the assay on MDA-MB-468, 85.3%; with ACHN, 104%; in the assay on CCRF-CEM it was 83.4%; with SN12C it was 109%. The activity at 10 µM in the assay with HT29 was found to be 111%; with OVCAR-4 it was 118%; in the assay with SK-OV-3, 105%; in the assay with UACC-257, 99.2%; in the assay with SF-295, 117%; with RPMI-8226, 97.5%. Moreover, the activity at 10 µM is 105% in the assay on SK-MEL-2; 103% with BT-549; 85.5% in the assay with MCF7; 103% in the assay on NCI-H322M; 110% with SNB-19; 104% in the assay on SF-539. Besides, the activity at 10 µM with NCI/ADR-RES worked out at 104%; in the assay on SW-620, 115%; in the assay on COLO 205 it was 121%; in the assay with HOP-62, 136%; in the assay on EKVX it was 109%.

The values are drawn from publication PMC8880564, “Design, Synthesis, and Biological Evaluation of a Novel VEGFR-2 Inhibitor Based on a 1,2,5-Oxadiazole-2-Oxide Scaffold with MAPK Signaling Pathway Inhibition” (Pharmaceuticals, 2022).
